Laboratory results published in paper PMC4503722, “Novel Phenotypic Outcomes Identified for a Public Collection of Approved Drugs from a Publicly Accessible Panel of Assays” (PLoS ONE, 2015).
Where two headings read alike, the source gives them in different places.

Experiments:
[1] = tested on: INS-1E cells; experiment: cells; format: cell-based, rat
[2] = tested on: INS-1E cells; format: cell-based, rat; settings: assay number 9; 0.1 mM glucose;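 on 5mMGluc INS1E SecretionMod IC50/EC50: secreted insulin quantified by homogeneous immunoassay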
[3] = tested on: tonic K+ channel activity in INS-1E cells; experiment: cells; format: cell-based, rat; settings: for 0.1mMGluc_INS1E FluxOR IC50/EC50: assay number 10; for IC50: Rattus norvegicus, INS-1E, read-out: K+ channel assay IC50
[4] = tested on: endothelial tube formation in co-cultures of ECFCs and ADSCs treated with VEGF; experiment: cells; format: cell-based, human; settings: Homo sapiens, read-out: Anti-Angio IC50
[5] = tested on: nuclear β-catenin in C2C12 cells; experiment: cells; format: cell-based; settings: Mus musculus
[6] = tested on: NCI-H716 cells; experiment: cells; format: cell-based, Human
[7] = tested on: HeLa cells; experiment: cells; format: cell-based; settings: for EC50: Homo sapiens, HeLa, read-out: CellCycle G2/M
[8] = tested on: DLD-1; experiment: cells; format: cell-based; settings: Homo sapiens
[9] = tested on: SW480; experiment: cells; format: cell-based; settings: Homo sapiens
[10] = tested on: HCT116; experiment: cells; format: cell-based; settings: Homo sapiens
[11] = tested on: HCT116 cells treated with a GSK3β inhibitor; experiment: cells; format: cell-based; settings: Homo sapiens
[12] = Rattus norvegicus, INS-1E, read-out: Ins. sec. EC50
[13] = Rattus norvegicus, INS-1E, read-out: Insulin Secretion
[14] = Homo sapiens, NCI-H716, read-out: GLP1 sec. EC50
[15] = DLD-1, 72 h, read-out: DLD-1 viab. IC50
[16] = SW480, 72 h, read-out: SW480 viab. IC50
[17] = SW480, read-out: Basal_Viability ATP SW480
[18] = HCT-116, 72 h, read-out: HCT-116 viab. IC50
[19] = HCT-116, 72 h, read-out: HCT-116 (GSK3β) viab. IC50
[20] = Table 2, primary assay tube area, 20 = no response in concentration-response, 20.1 = inactive in single concentration testing
[21] = C2C12, Table 2, C2C12, […], 20 / 20.1 coded, read-out: Wnt pot. EC50
[22] = Rattus norvegicus, INS-1E; read-out: Ins. sec. EC50
[23] = DLD-1, 72 h, Table 2, 72 h, Cell TiterGlo, non-adherent, 20 coded, read-out: DLD-1 viab. IC50
[24] = SW480, 72 h, Table 2, 72 h, Cell TiterGlo, non-adherent, 20 coded, read-out: SW480 viab. IC50
[25] = HCT-116, 72 h, read-out: HCT-116 viab. IC50, Table 2, basal, 72 h, Cell TiterGlo, non-adherent, 20 coded
[26] = HCT-116, read-out: HCT-116 (GSK3β) viab. IC50, Table 2, GSK3β inhibitor LY2090314 20 nM, 72 h, Cell TiterGlo, 20 coded

## CC1CC(=O)NN=C1c1ccc(NCC(C)(C)NCC(O)COc2cc(Cl)ccc2C#N)cc1 (stereo not drawn) [NCGC00249416-01]
[1]; assay number 8; 5 mM glucose
  5mMGluc_INS1E SecretionMod IC50/EC50: 15.1547 µM
[2]
  0.1mMGluc_INS1E SecretionMod Act IC50/EC50: > 33.33 µM
[3]; 0.1 mM glucose
  0.1mMGluc_INS1E FluxOR IC50/EC50: 84.8421 µM

## CC(CC1c2ccccc2CCc2ccccc21)CN(C)C (stereo not drawn) [butriptyline, reference compound]
[4]
  IC50: > 10 µM
[5]; C2C12, read-out: Wnt pot. EC50
  EC50: > 10 µM
[1]; [12]
  EC50: 3.6 µM
[1]; [13]
  EC50: 3.64 µM
[3]
  IC50: > 20 µM
[6]; [14]
  EC50: > 10 µM
[7]
  EC50: > 10 µM
[8]; [15]
  IC50: 8.1 µM
[8]; DLD-1, read-out: Basal_Viability ATP DLD-1
  IC50: 8.1 µM
[9]; [16]
  IC50: 7.8 µM
[9]; [17]
  IC50: 7.84 µM
[10]; [18]
  IC50: 6.2 µM
[10]; HCT-116, read-out: Basal_Viability ATP HCT116
  IC50: 6.21 µM
[11]; [19]
  IC50: > 20 µM

## CCN(CCCCOC(=O)c1ccc(OC)c(OC)c1)C(C)Cc1ccc(OC)cc1 (stereo not drawn) [mebeverine, reference compound]
[4]; [20]
  IC50: > 10 µM
[5]; [21]
  EC50: > 10 µM
[1]; [22]
  EC50: 2 µM
[1]; Rattus norvegicus; IC50 / EC50; INS-1E; read-out: Insulin Secretion
  EC50: 1.95 µM
[3]; 0.1 mM glucose, thallium flux
  IC50: 1.7 µM
[6]; Homo sapiens, NCI-H716; read-out: GLP1 sec. EC50
  EC50: > 10 µM
[7]
  G2/M IC50 / EC50: 20 (values shown as 20 indicate that the compound was tested in concentration-response and showed no response at the highest concentration tested (e.g. IC50 > 20 μM))
[7]; IC50 / EC50
  EC50: > 10 µM
[8]; [23]
  IC50: > 20 µM
[9]; [24]
  IC50: > 20 µM
[10]; [25]
  IC50: > 20 µM
[11]; [26]
  IC50: > 20 µM

## CCN(CC)CCCN(c1ccccc1)C1Cc2ccccc2C1.Cl [NCGC00167576-02]
[1]; assay number 8; 5 mM glucose
  5mMGluc_INS1E SecretionMod IC50/EC50: 7.1279 µM
[2]
  0.1mMGluc_INS1E SecretionMod Act IC50/EC50: > 33.33 µM
[3]; 0.1 mM glucose
  0.1mMGluc_INS1E FluxOR IC50/EC50: 14.9742 µM

## CN(C)C/C=C(/c1ccc(Br)cc1)c1cccnc1.Cl.Cl.O [NCGC00025286-04]
[1]; assay number 8; 5 mM glucose
  5mMGluc_INS1E SecretionMod IC50/EC50: 8.361 µM
[2]
  0.1mMGluc_INS1E SecretionMod Act IC50/EC50: > 33.33 µM
[3]; 0.1 mM glucose
  0.1mMGluc_INS1E FluxOR IC50/EC50: 27.874 µM

## CCN(CC)CCOc1ccccc1C(=O)CCc1ccccc1 [etafenone, reference compound]
[4]; [20]
  IC50: > 10 µM
[5]; [21]
  EC50: > 10 µM
[1]; [22]
  EC50: 3.9 µM
[1]; Rattus norvegicus, INS-1E; read-out: Insulin Secretion
  EC50: 3.89 µM
[3]; 0.1 mM glucose, thallium flux
  IC50: 6.7 µM
[7]
  G2/M IC50 / EC50: 20 (values shown as 20 indicate that the compound was tested in concentration-response and showed no response at the highest concentration tested (e.g. IC50 > 20 μM))
[7]; S2 Table, 20 = no response at highest concentration
  EC50: > 10 µM
[8]; [23]
  IC50: > 20 µM
[9]; [24]
  IC50: 16.9 µM
[9]; SW480, basal, SW480, read-out: Basal_Viability ATP SW480
  IC50: 16.9 µM
[10]; [25]
  IC50: 11.2 µM
[10]; HCT-116, basal, HCT116, read-out: Basal_Viability ATP HCT116
  IC50: 11.2 µM
[11]; [26]
  IC50: > 20 µM

## CCC(=O)c1ccc2c(c1)N(CCCN(C)C)c1ccccc1S2.Cl [NCGC00015838-06]
[1]; assay number 8; 5 mM glucose
  5mMGluc_INS1E SecretionMod IC50/EC50: 10.7311 µM
[2]
  0.1mMGluc_INS1E SecretionMod Act IC50/EC50: > 33.33 µM
[3]; 0.1 mM glucose
  0.1mMGluc_INS1E FluxOR IC50/EC50: 25.7434 µM

## CC(C)C1CCC(C(=O)N[C@H](Cc2ccccc2)C(=O)O)CC1 (stereo partly drawn) [NCGC00178741-03]
[1]; assay number 8; 5 mM glucose
  5mMGluc_INS1E SecretionMod IC50/EC50: 7.074 µM
[2]
  0.1mMGluc_INS1E SecretionMod Act IC50/EC50: > 33.33 µM
[3]; 0.1 mM glucose
  0.1mMGluc_INS1E FluxOR IC50/EC50: 0.2515 µM

## CN(C)CCC=C1c2ccccc2CCc2ccccc21 [amitriptyline, reference compound]
[4]
  IC50: > 10 µM
[5]; C2C12, read-out: Wnt pot. EC50
  EC50: > 10 µM
[1]; [12]
  EC50: 3 µM
[1]; [13]
  EC50: 3 µM
[3]
  IC50: 6.2 µM
[6]; [14]
  EC50: > 10 µM
[7]
  EC50: > 10 µM
[8]; [15]
  IC50: > 20 µM
[9]; [16]
  IC50: 10.1 µM
[9]; [17]
  IC50: 10.1 µM
[10]; [18]
  IC50: > 20 µM
[11]; [19]
  IC50: > 20 µM
